What all share (test): DTP human tumour cell line panel, 48 h
Assay [1] concerns HT-29.
For assay [2], the system named is HCT-116.
The test system of assay [3] is HCC 2998.
For assay [4], the system named is TK-10.
For assay [5], the system named is M14.
The test system of assay [6] is DU-145.
Assay [7] has as its system NCI-H226.
The subject of assay [8] is OVCAR-8.
For assay [9], the system named is OVCAR-5.
Assay [10] has as its system NCI-H460.
Assay [11] deals with IGROV-1.
Assay [12] has as its system NCI-H522.
Assay [13] concerns SW-620.
Assay [14] has as its system HL-60.
Assay [15] has as its system PC-3.
Assay [16] has as its system SK-MEL-5.
Assay [17] concerns NCI-H23.
The test system of assay [18] is CCRF-CEM.
Assay [19] concerns SK-MEL-28.

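These data come from cells grown in 96-well plates and exposed to compound for 48 hours at five concentrations. Here, GI50 denotes the concentration required for 50% inhibition of growth.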 Activity calls are given as the source filed them. No stated cut-off is given here; in the data, active = GI50 up to about 1.1 µM and inactive = higher.

What is called GI50 is the concentration giving 50% growth inhibition.

For `CCc1cc2c(oc3cc4ccccc4cc32)c(=O)[nH]1`, the GI50 in assay [1], in [2], in [3], in assay [4], in assay [5] and in assay [6] was > 10 µM (inactive) throughout. For the same molecule, the GI50 in assay [7], in assay [8], in [9], in [10], in assay [11] and in [12] was > 10 µM (inactive) each time. Further, the GI50 in [13], in assay [14] and in assay [15] was > 10 µM (inactive) throughout.

Take `Nc1ccc2c(c1)nc1n2C(c2c(F)cccc2F)SC1` (configuration not stated): the GI50 was > 100 µM (inactive) in [1]; > 100 µM (inactive) in assay [2]; > 100 µM (inactive) in assay [3]; 47.8 µM (inactive) in [16]; > 100 µM (inactive) in [17]; 61.2 µM (inactive) in assay [18]. Moreover, the GI50 in [4], in assay [5], in assay [6], in assay [19], in assay [8] and in [9] was > 100 µM (inactive) each time. Moreover, the GI50 in assay [10] was > 100 µM (inactive); in assay [11] it was > 100 µM (inactive); in assay [12] it was > 100 µM (inactive); in assay [13], > 100 µM (inactive); in assay [14], 48.5 µM (inactive); in assay [15] it was > 100 µM (inactive).

On to `CCOC(=O)C1C(c2ccc(OC)cc2)c2c(nn(-c3ccccc3)c2O)CC1(O)OCC` (configuration not stated), for which the GI50 is 27.4 µM (inactive) in [1]; 23.7 µM (inactive) in assay [2]; > 100 µM (inactive) in assay [3]; 26.6 µM (inactive) in assay [16]; > 100 µM (inactive) in assay [17]; > 100 µM (inactive) in assay [4]. Also, the GI50 in assay [5] was 19.7 µM (inactive); in assay [6] it was 44.6 µM (inactive); in assay [19], > 100 µM (inactive); in assay [8], > 100 µM (inactive); in assay [9], > 100 µM (inactive); in assay [10], 6.75 µM (inactive). The GI50 is > 100 µM (inactive) in assay [11]; 50.4 µM (inactive) in assay [12]; 27.5 µM (inactive) in assay [13]; 0.47 µM (active) in assay [14]; 9.31 µM (inactive) in [15].

In the case of `CSc1ncc2c(C#N)c3ccccn3c(=O)c2n1`, the GI50 was > 100 µM (inactive) in assay [1]; 88.5 µM (inactive) in assay [2]; > 100 µM (inactive) in assay [3]; > 100 µM (inactive) in assay [16]; > 100 µM (inactive) in [17]; > 100 µM (inactive) in assay [18]. Besides, the GI50 in assay [4], in assay [5], in assay [6], in assay [19], in assay [7] and in assay [8] was > 100 µM (inactive) each time. In addition, the GI50 in [9] is > 100 µM (inactive); in assay [10], 57.3 µM (inactive); in assay [11], > 100 µM (inactive); in assay [13], 52.6 µM (inactive); in assay [14], > 100 µM (inactive); in assay [15], > 100 µM (inactive).

`CN(CCNC(=O)c1nn(C)c2c1Cc1ccccc1-2)CCNC(=O)c1nn(C)c2c1Cc1ccccc1-2`: the GI50 was 14 µM (inactive) in [1]; 15.1 µM (inactive) in assay [2]; 12.5 µM (inactive) in assay [3]; 12.1 µM (inactive) in [16]; 15.4 µM (inactive) in assay [17]; 15.7 µM (inactive) in [4]. Also, the GI50 is 12.6 µM (inactive) in assay [5]; 17.9 µM (inactive) in [6]; 16.1 µM (inactive) in [19]; 18.3 µM (inactive) in assay [7]; 17.5 µM (inactive) in [8]; 26.8 µM (inactive) in assay [9]. Moreover, the GI50 is 16.4 µM (inactive) in assay [10]; 8.55 µM (inactive) in assay [11]; 16.2 µM (inactive) in [12]; 18.7 µM (inactive) in [13]; 12.9 µM (inactive) in assay [14]; 18.4 µM (inactive) in assay [15].

With `CC(C)OCC(O)COc1cc(=O)oc2ccccc12` (configuration not stated), the GI50 is > 100 µM (inactive) in assay [1]; > 100 µM (inactive) in assay [2]; 50.4 µM (inactive) in [3]; > 100 µM (inactive) in [16]; > 100 µM (inactive) in assay [17]; > 100 µM (inactive) in [18]. Moreover, the GI50 in assay [4], in assay [5], in assay [6], in [19], in assay [8] and in assay [9] was > 100 µM (inactive) each time. Also, the GI50 in assay [10], in assay [11], in assay [12], in assay [13], in assay [14] and in assay [15] was > 100 µM (inactive) throughout.

Regarding `N#Cc1c(-c2ccc(Cl)cc2)c2c(n(C3OC(CO)C(O)C(O)C3O)c1=S)CCC2` (configuration not stated), the GI50 was 29 µM (inactive) in assay [1]; 34.4 µM (inactive) in assay [2]; 19.8 µM (inactive) in assay [3]; 13.3 µM (inactive) in [16]; 25.4 µM (inactive) in [17]; 16.1 µM (inactive) in assay [18]. Also, the GI50 in assay [4] was 37.6 µM (inactive); in [5], 22.6 µM (inactive); in assay [6], 42.4 µM (inactive); in assay [19], 17.8 µM (inactive); in [9], 41.3 µM (inactive); in [10], 33 µM (inactive). For the same molecule, the GI50 in assay [11] is 34.1 µM (inactive); in assay [13], 20.4 µM (inactive); in assay [14] it was > 100 µM (inactive); in assay [15], 28.4 µM (inactive).

On to `COC(=O)c1cc(C#N)[nH]c1-c1ccc(C)s1`, for which the GI50 in assay [2] was > 100 µM (inactive); in assay [3], > 100 µM (inactive); in assay [17], 34 µM (inactive); in [18], 53 µM (inactive); in [5], > 100 µM (inactive); in assay [6] it was 30.6 µM (inactive). The GI50 in assay [19] was 56.4 µM (inactive); in [7], 37.6 µM (inactive); in assay [8] it was 59.3 µM (inactive); in assay [9] it was 47.5 µM (inactive); in assay [10], 82.2 µM (inactive); in assay [12], 36.1 µM (inactive). For the same molecule, the GI50 in assay [13] is 43.9 µM (inactive); in assay [15] it was 8.39 µM (inactive).

With `Cc1nnc2n1-c1ccccc1N(Cc1ccccc1)CC2`, the GI50 in assay [1] is 40.1 µM (inactive); in [2], 46 µM (inactive); in assay [3] it was 79.4 µM (inactive); in assay [16], 38.2 µM (inactive); in assay [17] it was 60 µM (inactive); in assay [18] it was 17.6 µM (inactive). Moreover, the GI50 is 82.6 µM (inactive) in assay [4]; 63.7 µM (inactive) in [5]; 70.3 µM (inactive) in assay [6]; > 100 µM (inactive) in assay [19]; 46.8 µM (inactive) in [7]; 56 µM (inactive) in assay [8]. Moreover, the GI50 in assay [9] is > 100 µM (inactive); in assay [10], > 100 µM (inactive); in assay [11], 50.6 µM (inactive); in assay [13], 17.2 µM (inactive); in assay [14], 23.6 µM (inactive); in assay [15] it was 49.8 µM (inactive).
